Measurements from patent EP1698638A1, “Lipopeptides having pharmaceutical activity” (Technische Universität Berlin, priority 2005, dated 2006).

Key:
Format in all cases: cell-based
[1] = test system: Fusarium sambucium; assay: disk diffusion assay on malt agar plates; settings: 10 µg in 30 µL 50% MeOH per disk
[2] = test system: Candida glabrata; assay: disk diffusion assay on malt agar plates; settings: 10 µg in 30 µL 50% MeOH per disk
[3] = test system: Acremonium strictum RKI 226/03; assay: microdilution assay (NCCLS), inhibitory concentration (IC); settings: RPMI-1640 medium
Description: (§1) More specifically, a determination of inhibitory concentration (IC) of hassallidin A and hassallidin B for various fungi, Candida species and Candida strains were performed with different media (RPMI-1640 or SAB or AM3) in a microdilution assay by following the guidelines in NCCLS documents M^38-P^25 and M27-A2^26 carried out as follows Each substance was dissolved with 100% dimethyl sulfoxide (Serva, Heidelberg, Germany) to give a stock solution of 3.2 mg/ml followed by nine log2 dilution steps with the solvent. This served as a 100-fold concentrated dilution series ranging from 1.6 mg/ml to 0.003 mg/ml of the test substance. The final concentration of the test substance was 16 µg/ml to 0.031 µg/ml.
(§2) Therefore the 100-fold concentrated dilution series (with 100% DMSO) was diluted to the final concentration by two dilution steps: • (1) Each concentration of the 100-fold concentrated substance was diluted with test medium for 1:50 (for ex.: adding of 13 µl of the test substance to 637 µl test medium). • (2) 100 µl of each 1:50 diluted concentration was filled in a row of wells of a microtitre plate. One well was without the substance but with the 1:50 diluted solvent serving as growth control.
(§3) A further 1:2 dilution of the antifungal was made by the inoculation of each well with 100 µl of the test organism, which was suspended in the test medium. The remaining well of the row was used for sterility control of the medium. The inoculum was strictly prepared according the NCCLS^25 guidelines, resulting in […] for Candida-species and Cryptococcus neoformans. For hyphomycetes CFU's were tenfold higher (see NCCLS). ^26 The growth of the hyphomycetes respectively the inhibition was measured by visual reading with the help of a reading mirror; scoring was done according to NCCLS :^26 score 0 corresponds to a optical clear well or an IC95 or higher, score 1 corresponds to an inhibition of 80 percent (IC80) and the score 2 of the NCCLS definition corresponds to the IC50 values in the tables. The growth of the yeasts was measured spectrophotometrically by a microplate reader (MR 5000, Dynatech laboratories) at 630 nm displaying the optical density (OD). The percent inhibition IC50, IC80 or IC95 (corresponding the scores of 2, 1 and 0) was calculated by the following formula: (100−[(ODof the well−ODof the medium)] × 100)/((ODof the growth control−ODof the medium).) [formula] Table 3. Test series for determining IC values of hassallidin A and B in different media using Candida albicans and Candida krusei. The IC values were measured after 24 h and 48 h at 30 °C.

[4] = test system: Aspergillus fumigatus RKI 584/00; assay: as above; settings: RPMI-1640 medium
Description: as §1, §2, §3

[5] = test system: Aspergillus fumigatus RKI 914/02; assay: as above; settings: RPMI-1640 medium
Description: as §1, §2, §3

[6] = test system: Candida albicans ATCC 90028; assay: as above; settings: RPMI-1640 medium
Description: as §1, §2, §3

[7] = test system: Candida spp. II; assay: as above; settings: RPMI-1640 medium
Description: as §1, §2, §3

[8] = test system: Candida spp. I; assay: as above; settings: RPMI-1640 medium
Description: as §1, §2, §3

[9] = test system: Fusarium solani RKI 144/03; assay: as above; settings: RPMI-1640 medium
Description: as §1, §2, §3

[10] = test system: Fusarium solani RKI 233/04; assay: as above; settings: RPMI-1640 medium
Description: as §1, §2, §3

[11] = test system: L 929 (murine aneuploid fibrosarcoma) cells; assay: cytotoxicity assay, IC-Tox50 Kit, resazurin (2nd test); settings: down to a concentration of 1.0 µg/mL; decrease of resazurin at 595 nm, 24 h
Description: 2nd test Cytotoxicity assays were further performed using the IC-Tox50 Kit from CCS (Cell Culture Service, Hamburg) according to the manufacturers recommendations in 96-well microtitre plates. L 929 (murine aneuploid fibrosarcoma) cells were used and the activity was followed by recording the decrease of the blue pigment resazurin at 595 nm. Down to a concentration of 1.0 µg/mL a hundred percent inhibition of cell activity was determined for hassallidin A and hassallidin B. The cytotoxity assays using deposited L 929 cells were prepared as follows: • Each well contained 140 µl RPMI-1640 medium, 100 µl resazurin solution and 10 µl test solution of hassallidin A or hassallidin B at different concentrations. To obtain 10 µl test solution, 1 µl / 2 µl / 3 µl or 4µl of a 50% methanolic stock solution (25 µg/ 100 µl) were mixed with 9 µl / 8 µl / 7 µl or 6 µl 50% MeOH. For unhindered cell activity, 10 µl 50% MeOH solution was used as test solution. Solutions of 1µg Na2SeO3 / 10 µl (50% MeOH) and 2 µg Na2SeO3 /10 µl (50% MeOH) were used as positive control. • The absorption difference (t0h-t24h) of resazurin metabolised by L 929 cells is graphically represented in figure 6.

hassallidin A
antifungal activity in disk diffusion assay [1]: precise antifungal activity | antifungal activity in disk diffusion assay [2]: precise antifungal activity | IC50 ([3]; 30°C/24h): 4 to 8 µg/mL | IC80 ([3]; 30°C/24h): 16 µg/mL | IC95 ([3]; 30°C/24h): 16 µg/mL | IC50 ([3]; 30°C/48h): >16 µg/mL | IC80 ([3]; 30°C/48h): > 16 µg/mL | IC95 ([3]; 30°C/48h): > 16 µg/mL | IC50 ([4]; 35°C/24h): 2 µg/mL | IC80 ([4]; 35°C/24h): 2 µg/mL | IC95 ([4]; 35°C/24h): 2 µg/mL | IC80 ([4]; 35°C/48h): 4 µg/mL | IC95 ([4]; 35°C/48h): 4 µg/mL | IC50 ([5]; 35°C/24h): 2 µg/mL | IC80 ([5]; 35°C/24h): 2 µg/mL | IC95 ([5]; 35°C/24h): 2 µg/mL | IC50 ([5]; 35°C/48h): 2 µg/mL | IC80 ([5]; 35°C/48h): 2 µg/mL | IC95 ([5]; 35°C/48h): 4 µg/mL | IC50 ([6]; 35°C/24h): 8 µg/mL | IC80 ([6]; 35°C/24h): 8 µg/mL | IC95 ([6]; 35°C/24h): 8 µg/mL | IC50 ([6]; 35°C/48h): 8 µg/mL | IC80 ([6]; 35°C/48h): 8 µg/mL | IC95 ([6]; 35°C/48h): 8 µg/mL | IC50 ([7]; 35°C/24h): 8 µg/mL | IC80 ([7]; 35°C/24h): 8 µg/mL | IC95 ([7]; 35°C/24h): 8 µg/mL | IC50 ([7]; 35°C/48h): 8 µg/mL | IC80 ([7]; 35°C/48h): 8 µg/mL | IC95 ([7]; 35°C/48h): 8 µg/mL | IC50 ([8]; 35°C/24h): 8 µg/mL | IC80 ([8]; 35°C/24h): 8 µg/mL | IC95 ([8]; 35°C/24h): 8 µg/mL | IC50 ([8]; 35°C/48h): 8 µg/mL | IC80 ([8]; 35°C/48h): 8 µg/mL | IC95 ([8]; 35°C/48h): 8 µg/mL | IC50 ([9]; 30°C/24h): 16 µg/mL | IC80 ([9]; 30°C/24h): 16 µg/mL | IC95 ([9]; 30°C/24h): >16 µg/mL | IC50 ([9]; 30°C/48h): >16 µg/mL | IC80 ([9]; 30°C/48h): >16 µg/mL | IC95 ([9]; 30°C/48h): >16 µg/mL | IC50 ([10]; 30°C/24h): 16 µg/mL | IC80 ([10]; 30°C/24h): 16 µg/mL | IC95 ([10]; 30°C/24h): >16 µg/mL | IC50 ([10]; 30°C/48h): >16 µg/mL | IC80 ([10]; 30°C/48h): >16 µg/mL | IC95 ([10]; 30°C/48h): >16 µg/mL | inhibition of cell activity [11]: a hundred

hassallidin B
antifungal activity in disk diffusion assay [1]: precise antifungal activity | antifungal activity in disk diffusion assay [2]: precise antifungal activity | inhibition of cell activity [11]: a hundred
